Reference: ChEMBL document CHEMBL1201862, “PubChem BioAssay data set” (2004)
Calls of active or inactive are those of the source.

How the values were obtained:
Type in all cases: functional
[1] = biological target: T1, Receptor-type tyrosine-protein kinase FLT3 (Homo sapiens, UniProt P36888);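 note: FLT3 was tested as one member of a kinome-wide kinase panel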
T1 sequence (P36888 whole entry): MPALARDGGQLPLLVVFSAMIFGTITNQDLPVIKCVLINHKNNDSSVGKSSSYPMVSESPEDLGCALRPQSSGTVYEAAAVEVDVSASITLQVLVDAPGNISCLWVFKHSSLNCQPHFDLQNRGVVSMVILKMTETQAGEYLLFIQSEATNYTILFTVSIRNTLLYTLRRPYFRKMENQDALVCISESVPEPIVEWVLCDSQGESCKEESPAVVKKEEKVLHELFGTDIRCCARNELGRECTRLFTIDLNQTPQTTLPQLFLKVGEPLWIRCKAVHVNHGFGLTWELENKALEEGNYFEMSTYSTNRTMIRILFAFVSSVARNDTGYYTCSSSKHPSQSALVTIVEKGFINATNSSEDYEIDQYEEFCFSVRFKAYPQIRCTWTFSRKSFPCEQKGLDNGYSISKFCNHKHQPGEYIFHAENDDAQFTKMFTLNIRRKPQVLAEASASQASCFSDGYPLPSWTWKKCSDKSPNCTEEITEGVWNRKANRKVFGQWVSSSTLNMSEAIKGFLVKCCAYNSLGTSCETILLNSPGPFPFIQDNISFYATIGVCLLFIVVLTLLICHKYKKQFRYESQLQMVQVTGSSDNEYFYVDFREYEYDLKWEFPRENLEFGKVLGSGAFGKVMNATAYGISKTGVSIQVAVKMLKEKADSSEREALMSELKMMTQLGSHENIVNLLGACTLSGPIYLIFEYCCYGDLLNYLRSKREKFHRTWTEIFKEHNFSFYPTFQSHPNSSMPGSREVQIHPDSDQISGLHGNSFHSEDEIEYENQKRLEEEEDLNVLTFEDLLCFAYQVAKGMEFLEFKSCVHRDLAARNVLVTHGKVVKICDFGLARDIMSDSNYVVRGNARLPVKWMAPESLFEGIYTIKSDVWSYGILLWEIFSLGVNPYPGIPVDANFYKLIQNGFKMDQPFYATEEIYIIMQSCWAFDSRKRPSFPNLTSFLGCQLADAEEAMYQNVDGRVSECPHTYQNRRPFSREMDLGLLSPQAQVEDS

[2] = biological target: Death-associated protein kinase 3 (Homo sapiens, UniProt O43293);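 note: measured as one member of a kinome-wide profiling panel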
Death-associated protein kinase 3, sequence (O43293 whole entry): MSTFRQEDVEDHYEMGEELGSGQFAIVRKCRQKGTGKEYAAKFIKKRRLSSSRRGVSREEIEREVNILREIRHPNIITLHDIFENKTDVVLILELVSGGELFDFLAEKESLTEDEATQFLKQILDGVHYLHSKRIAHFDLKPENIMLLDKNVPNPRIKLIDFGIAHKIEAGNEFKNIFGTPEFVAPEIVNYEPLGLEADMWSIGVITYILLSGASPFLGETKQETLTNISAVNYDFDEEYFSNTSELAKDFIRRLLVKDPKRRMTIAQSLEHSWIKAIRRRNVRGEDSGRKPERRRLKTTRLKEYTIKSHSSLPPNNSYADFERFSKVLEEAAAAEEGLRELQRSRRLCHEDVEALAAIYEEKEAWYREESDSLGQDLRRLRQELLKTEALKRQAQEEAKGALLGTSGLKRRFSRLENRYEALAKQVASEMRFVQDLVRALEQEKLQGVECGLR

[3] = biological target: T2, Tyrosine-protein kinase receptor TYRO3 (Homo sapiens, UniProt Q06418);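 note: TYRO3 value obtained as one member of a kinome-wide profiling panel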
T2 sequence (Q06418 whole entry): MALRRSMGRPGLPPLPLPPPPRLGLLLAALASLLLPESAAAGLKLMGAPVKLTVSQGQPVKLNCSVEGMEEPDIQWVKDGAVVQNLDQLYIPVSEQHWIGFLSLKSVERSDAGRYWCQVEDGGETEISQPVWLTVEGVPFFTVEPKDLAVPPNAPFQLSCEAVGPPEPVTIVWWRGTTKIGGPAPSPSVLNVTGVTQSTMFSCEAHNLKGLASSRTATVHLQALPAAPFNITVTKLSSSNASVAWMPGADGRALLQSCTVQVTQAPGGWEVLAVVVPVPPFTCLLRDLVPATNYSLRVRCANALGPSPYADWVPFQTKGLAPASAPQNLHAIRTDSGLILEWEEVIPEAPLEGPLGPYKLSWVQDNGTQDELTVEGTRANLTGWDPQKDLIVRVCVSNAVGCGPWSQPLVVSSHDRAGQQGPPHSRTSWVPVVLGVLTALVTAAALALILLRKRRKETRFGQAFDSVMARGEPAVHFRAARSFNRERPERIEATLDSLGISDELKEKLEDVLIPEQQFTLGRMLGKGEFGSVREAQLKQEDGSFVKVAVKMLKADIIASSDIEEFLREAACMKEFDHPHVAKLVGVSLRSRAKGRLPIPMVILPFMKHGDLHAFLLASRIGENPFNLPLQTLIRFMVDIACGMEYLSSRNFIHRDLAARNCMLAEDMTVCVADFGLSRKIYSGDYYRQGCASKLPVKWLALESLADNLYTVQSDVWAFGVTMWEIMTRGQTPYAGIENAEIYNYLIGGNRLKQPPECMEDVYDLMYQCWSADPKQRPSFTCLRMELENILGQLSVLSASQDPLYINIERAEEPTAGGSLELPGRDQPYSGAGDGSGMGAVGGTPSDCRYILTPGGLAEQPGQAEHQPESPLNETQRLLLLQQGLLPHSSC

[4] = biological target: T3, cAMP-dependent protein kinase catalytic subunit PRKX (Homo sapiens, UniProt P51817)
T3 sequence (P51817 whole entry): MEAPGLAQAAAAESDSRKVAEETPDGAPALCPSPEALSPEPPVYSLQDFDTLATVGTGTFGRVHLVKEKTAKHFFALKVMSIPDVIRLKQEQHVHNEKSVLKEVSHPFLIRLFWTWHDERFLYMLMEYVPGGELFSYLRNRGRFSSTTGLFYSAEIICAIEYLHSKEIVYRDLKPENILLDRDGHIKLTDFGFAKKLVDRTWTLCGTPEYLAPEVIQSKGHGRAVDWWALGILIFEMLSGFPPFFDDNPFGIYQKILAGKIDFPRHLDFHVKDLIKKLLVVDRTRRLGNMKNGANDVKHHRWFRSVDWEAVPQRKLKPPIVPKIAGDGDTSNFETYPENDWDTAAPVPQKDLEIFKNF

Aurora kinase A = biological target: T4, Aurora kinase A (Homo sapiens, UniProt O14965);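 note: value from the Navigating the Kinome kinase panel profiling, panel entry STK6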
T4 sequence (O14965 whole entry): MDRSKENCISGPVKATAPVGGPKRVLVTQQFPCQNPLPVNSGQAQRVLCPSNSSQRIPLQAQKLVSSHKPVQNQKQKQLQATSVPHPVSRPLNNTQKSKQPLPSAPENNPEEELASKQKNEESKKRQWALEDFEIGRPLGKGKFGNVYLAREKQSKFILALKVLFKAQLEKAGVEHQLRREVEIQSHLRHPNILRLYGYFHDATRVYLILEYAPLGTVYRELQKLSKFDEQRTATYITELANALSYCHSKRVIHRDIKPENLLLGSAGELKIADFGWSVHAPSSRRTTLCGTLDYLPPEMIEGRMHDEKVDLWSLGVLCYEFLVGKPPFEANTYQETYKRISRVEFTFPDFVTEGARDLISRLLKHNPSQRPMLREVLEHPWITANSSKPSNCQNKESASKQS

[5] = biological target: Mitogen-activated protein kinase 9 (Homo sapiens, UniProt P45984);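 note: value from a kinome panel profiling assay, MAPK9 panel entry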
Mitogen-activated protein kinase 9, sequence (P45984 whole entry): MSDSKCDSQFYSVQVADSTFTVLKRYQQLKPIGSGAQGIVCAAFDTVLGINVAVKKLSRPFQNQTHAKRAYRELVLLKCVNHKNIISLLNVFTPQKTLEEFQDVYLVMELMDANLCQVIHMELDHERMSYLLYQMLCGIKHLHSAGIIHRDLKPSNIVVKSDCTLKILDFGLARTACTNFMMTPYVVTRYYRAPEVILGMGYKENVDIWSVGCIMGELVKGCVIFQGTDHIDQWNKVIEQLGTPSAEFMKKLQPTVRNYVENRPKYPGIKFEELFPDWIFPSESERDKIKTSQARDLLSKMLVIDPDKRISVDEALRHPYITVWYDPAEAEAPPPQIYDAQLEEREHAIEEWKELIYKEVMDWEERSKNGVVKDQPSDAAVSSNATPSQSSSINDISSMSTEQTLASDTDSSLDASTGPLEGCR

Focal adhesion kinase 1 = Focal adhesion kinase 1 (Homo sapiens, UniProt Q05397);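 note: measured as one member of a kinome panel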
Focal adhesion kinase 1, sequence (Q05397 whole entry): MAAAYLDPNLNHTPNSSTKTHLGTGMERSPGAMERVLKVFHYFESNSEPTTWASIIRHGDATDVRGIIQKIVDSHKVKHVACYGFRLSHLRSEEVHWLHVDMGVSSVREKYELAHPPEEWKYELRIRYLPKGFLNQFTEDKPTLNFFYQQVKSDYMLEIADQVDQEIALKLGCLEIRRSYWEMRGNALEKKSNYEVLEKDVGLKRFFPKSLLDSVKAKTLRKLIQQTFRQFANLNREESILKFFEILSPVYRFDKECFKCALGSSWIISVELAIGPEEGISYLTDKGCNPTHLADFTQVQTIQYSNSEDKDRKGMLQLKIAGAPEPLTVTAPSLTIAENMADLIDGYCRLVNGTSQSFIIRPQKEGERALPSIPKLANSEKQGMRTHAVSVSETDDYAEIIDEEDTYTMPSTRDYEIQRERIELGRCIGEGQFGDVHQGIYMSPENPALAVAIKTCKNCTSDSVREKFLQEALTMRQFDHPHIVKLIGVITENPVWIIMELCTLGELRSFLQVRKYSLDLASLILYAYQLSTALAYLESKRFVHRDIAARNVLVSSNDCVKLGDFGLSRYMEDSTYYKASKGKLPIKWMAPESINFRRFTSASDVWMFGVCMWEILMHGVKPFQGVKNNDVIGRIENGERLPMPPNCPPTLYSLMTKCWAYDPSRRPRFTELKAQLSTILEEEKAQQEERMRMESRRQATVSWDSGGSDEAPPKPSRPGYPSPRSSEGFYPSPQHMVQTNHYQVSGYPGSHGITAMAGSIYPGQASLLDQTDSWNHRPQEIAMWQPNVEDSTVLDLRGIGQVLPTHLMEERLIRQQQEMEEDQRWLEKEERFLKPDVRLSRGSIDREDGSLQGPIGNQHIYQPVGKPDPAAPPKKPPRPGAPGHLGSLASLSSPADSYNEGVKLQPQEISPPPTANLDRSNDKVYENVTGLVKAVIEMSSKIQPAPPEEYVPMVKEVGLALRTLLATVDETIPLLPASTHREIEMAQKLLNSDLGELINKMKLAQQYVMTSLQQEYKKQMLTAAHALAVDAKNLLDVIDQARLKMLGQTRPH

[6] = biological target: Rho-associated protein kinase 1 (Homo sapiens, UniProt Q13464);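 note: measured within a broad kinome-wide panel profiling many kinases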
Rho-associated protein kinase 1, sequence (Q13464 whole entry): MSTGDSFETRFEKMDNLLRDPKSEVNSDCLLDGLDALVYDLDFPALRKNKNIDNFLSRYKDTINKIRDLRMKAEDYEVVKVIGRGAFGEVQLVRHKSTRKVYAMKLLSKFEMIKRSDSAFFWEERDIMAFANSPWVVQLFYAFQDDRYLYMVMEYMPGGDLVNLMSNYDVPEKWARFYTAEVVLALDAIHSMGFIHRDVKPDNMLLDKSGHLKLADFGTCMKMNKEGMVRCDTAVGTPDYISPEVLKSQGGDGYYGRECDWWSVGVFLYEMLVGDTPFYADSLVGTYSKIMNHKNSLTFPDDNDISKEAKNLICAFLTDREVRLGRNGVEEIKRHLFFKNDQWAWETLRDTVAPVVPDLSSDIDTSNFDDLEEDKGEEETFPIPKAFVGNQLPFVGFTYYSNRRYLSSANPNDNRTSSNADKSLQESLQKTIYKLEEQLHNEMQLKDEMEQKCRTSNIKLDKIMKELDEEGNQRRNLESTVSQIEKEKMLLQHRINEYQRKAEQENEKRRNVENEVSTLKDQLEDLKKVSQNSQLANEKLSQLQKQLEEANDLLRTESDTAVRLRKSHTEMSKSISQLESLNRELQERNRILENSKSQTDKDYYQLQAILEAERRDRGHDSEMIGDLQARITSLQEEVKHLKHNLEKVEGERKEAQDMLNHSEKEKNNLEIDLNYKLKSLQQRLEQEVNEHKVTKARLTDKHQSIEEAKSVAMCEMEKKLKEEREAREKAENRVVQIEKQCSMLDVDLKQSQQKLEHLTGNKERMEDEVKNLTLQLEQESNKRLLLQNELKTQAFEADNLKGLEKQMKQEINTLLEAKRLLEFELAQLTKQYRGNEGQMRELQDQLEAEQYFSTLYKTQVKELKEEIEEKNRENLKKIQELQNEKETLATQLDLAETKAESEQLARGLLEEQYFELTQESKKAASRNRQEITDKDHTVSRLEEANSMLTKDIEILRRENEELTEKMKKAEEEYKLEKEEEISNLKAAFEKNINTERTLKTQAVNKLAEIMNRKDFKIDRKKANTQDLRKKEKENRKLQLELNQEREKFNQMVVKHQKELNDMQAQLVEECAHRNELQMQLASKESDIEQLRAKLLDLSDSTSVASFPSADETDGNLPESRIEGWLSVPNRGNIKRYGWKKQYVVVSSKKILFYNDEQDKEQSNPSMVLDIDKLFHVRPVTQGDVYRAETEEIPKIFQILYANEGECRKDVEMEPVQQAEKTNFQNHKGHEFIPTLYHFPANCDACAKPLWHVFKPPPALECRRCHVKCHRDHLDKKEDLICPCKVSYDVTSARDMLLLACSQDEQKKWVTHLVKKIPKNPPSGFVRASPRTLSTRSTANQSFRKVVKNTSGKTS

[7] = biological target: Dual specificity protein kinase CLK2 (Homo sapiens, UniProt P49760)
Dual specificity protein kinase CLK2, sequence (P49760 whole entry): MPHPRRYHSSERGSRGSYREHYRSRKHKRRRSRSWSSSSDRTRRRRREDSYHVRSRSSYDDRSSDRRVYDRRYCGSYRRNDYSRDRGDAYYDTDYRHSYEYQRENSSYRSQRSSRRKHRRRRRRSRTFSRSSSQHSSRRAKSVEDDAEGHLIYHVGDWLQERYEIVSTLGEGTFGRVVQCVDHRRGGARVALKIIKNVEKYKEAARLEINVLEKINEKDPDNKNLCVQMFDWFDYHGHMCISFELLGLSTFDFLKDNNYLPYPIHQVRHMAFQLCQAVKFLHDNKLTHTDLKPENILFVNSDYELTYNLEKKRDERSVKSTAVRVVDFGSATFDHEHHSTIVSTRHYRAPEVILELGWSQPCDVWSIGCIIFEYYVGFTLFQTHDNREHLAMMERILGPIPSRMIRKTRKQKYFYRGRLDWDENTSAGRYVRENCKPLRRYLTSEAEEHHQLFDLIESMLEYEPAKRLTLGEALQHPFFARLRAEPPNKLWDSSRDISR

[8] = biological target: Leukocyte tyrosine kinase receptor (Homo sapiens, UniProt P29376); assay: Navigating the Kinome. Panel member name: LTK
Leukocyte tyrosine kinase receptor, sequence (P29376 whole entry): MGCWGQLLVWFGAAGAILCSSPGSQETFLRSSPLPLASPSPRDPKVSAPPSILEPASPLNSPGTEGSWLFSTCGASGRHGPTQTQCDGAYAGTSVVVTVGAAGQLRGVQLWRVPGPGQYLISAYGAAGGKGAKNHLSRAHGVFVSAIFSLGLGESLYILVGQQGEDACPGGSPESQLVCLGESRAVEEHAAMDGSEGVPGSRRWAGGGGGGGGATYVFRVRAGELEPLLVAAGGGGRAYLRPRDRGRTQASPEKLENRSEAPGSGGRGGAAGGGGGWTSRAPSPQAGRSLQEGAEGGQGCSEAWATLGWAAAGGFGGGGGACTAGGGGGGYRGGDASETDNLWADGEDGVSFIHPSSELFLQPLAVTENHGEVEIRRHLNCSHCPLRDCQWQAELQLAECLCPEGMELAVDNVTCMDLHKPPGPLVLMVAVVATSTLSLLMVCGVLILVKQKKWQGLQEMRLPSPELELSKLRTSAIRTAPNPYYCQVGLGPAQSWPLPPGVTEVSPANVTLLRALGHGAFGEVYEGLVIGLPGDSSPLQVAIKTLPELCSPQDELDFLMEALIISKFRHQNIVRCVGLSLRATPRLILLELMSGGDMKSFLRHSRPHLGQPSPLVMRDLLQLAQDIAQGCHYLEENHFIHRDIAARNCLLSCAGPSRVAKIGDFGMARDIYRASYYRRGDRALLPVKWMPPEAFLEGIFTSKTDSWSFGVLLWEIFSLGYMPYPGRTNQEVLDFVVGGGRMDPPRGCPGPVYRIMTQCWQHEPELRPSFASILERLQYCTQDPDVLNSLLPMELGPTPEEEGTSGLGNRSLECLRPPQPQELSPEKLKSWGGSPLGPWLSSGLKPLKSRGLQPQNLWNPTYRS

| Ki [1] | Ki [3] | Ki [4] | Ki (Aurora kinase A) | Ki [5] | Ki (Focal adhesion kinase 1) | Ki [6] | Ki [7] | Ki [8] | Structure (SMILES) | Ki [2] |
| --- | --- | --- | --- | --- | --- | --- | --- | --- | --- | --- |
| > 3.16 µM (inactive) | 0.316 µM (active) | 1 µM (active) | 1 µM (active) | > 3.98 µM (inactive) | 3.16 µM (active) | > 3.98 µM (inactive) | > 3.98 µM (inactive) | 1 µM (active) | Cc1ccc(C)c(NC(=O)c2cc(-c3ccco3)nc3ccccc23)c1 | 5.01 µM (active) |
| 2.51 µM (active) | 1 µM (active) | 0.398 µM (active) | > 1.58 µM (inactive) | 3.16 µM (active) | 0.794 µM (active) | 0.501 µM (active) | 0.316 µM (active) | 0.0251 µM (active) | COc1ccc(C2=NNc3cccc4c(OC)ccc2c34)cc1OC | 0.794 µM (active) |

| Structure (SMILES) | Ki [1] | Ki [3] | Ki [4] | Ki (Aurora kinase A) | Ki [5] | Ki (Focal adhesion kinase 1) | Ki [6] | Ki [7] | Ki [8] | Ki [2] |
| --- | --- | --- | --- | --- | --- | --- | --- | --- | --- | --- |
| CN1CCC(c2c(O)cc(O)c3c(=O)cc(-c4ccccc4Cl)oc23)C(O)C1 (stereo not given) | > 2.51 µM (inactive) | > 2.51 µM (inactive) | > 3.16 µM (inactive) | > 1.58 µM (inactive) | > 3.98 µM (inactive) | > 3.98 µM (inactive) | > 6.31 µM (inactive) | > 3.16 µM (inactive) | 0.631 µM (active) | > 3.16 µM (inactive) |
